Structure (SMILES)	melting point
CN1C(=O)C(c2cccc(-c3ccccc3)c2)(C2CCN(C(=O)c3cccs3)CC2)N=C1N (configuration not stated)	135 to 137 °C
N#Cc1ccc(C(=Cc2ccc(C#N)cn2)Cn2cncn2)cc1	211 °C
Cc1noc2ccc(Oc3ncccc3C(=O)NCc3ccc(C(C)(C)O)cc3)cc12	128 to 130 °C
Cn1c(-c2ccccc2Cl)c2ccsc2nc1=O	190 to 192 °C
N#Cc1ccc(CNC(=O)C2Cc3ccccc3N2S(=O)(=O)c2ccc(-c3cccc(C(F)(F)F)c3)cc2)cc1 (configuration not stated)	80 to 89 °C
O=C(CNc1ccccc1)Nc1cc(Cl)ccc1C(=O)O	229 to 230 °C
CCCCC(=O)Nc1ccc(Cl)c(-n2nc(CC)n(Cc3ccc(-c4ccccc4S(=O)(=O)NC(=O)OC(C)(C)C)cc3F)c2=O)c1	143 to 145 °C
COC(=O)c1ccccc1NC(C#N)c1ccc(Br)cc1 (configuration not stated)	112 °C
CCC(=O)Nc1ccc(CN2C(=O)[C@H]3CCC[C@H]3N(C(=O)CN3C(=O)c4ccccc4C3=O)c3ccccc32)cc1 (relative stereo)	286 °C
Cc1noc2ccc(Oc3ncccc3C(=O)NCC3CCC(C(C)(C)O)CC3)cc12 (configuration not stated)	135 to 137 °C
CCOC(=O)C1=C(C(F)(F)F)Nc2n[nH]cc2C1c1ccc(Cl)cc1 (configuration not stated)	176 to 178 °C
NC(=O)[C@@H]1[C@H](Nc2c(Cl)cnc3[nH]c(-c4cnn(C5CCNCC5)c4)nc23)[C@H]2C=C[C@@H]1C2	203 to 205 °C
CCCCCCCC(=O)SSC(=O)CCCCCCC	36 to 38 °C
CC(C)C[C@H](NC(=O)OCc1ccccc1)C(=O)N[C@@H](Cc1ccccc1)C(=O)COCc1ccco1	94 to 95 °C
NC(=O)C1CCc2c(sc3cc(F)ccc23)C1 (configuration not stated)	184 to 185 °C
C#CCSC(=S)N(C)C	57 to 59 °C
CC1(CSC#N)SC2C(NC(=O)Cc3ccccc3)C(=O)N2C1C(=O)OCC(Cl)(Cl)Cl (configuration not stated)	133 to 135 °C
Cc1cc(Nc2ccn(-c3ccccc3)n2)cc(C)c1O	154 to 155 °C
O=[N+]([O-])c1cnc2ccc(-c3ccccc3)cc2c1Nc1ccccc1Br	198 to 204 °C
Cn1c(C(F)(F)F)cc(=O)n(-c2cc(OCS(C)=O)c(Cl)cc2F)c1=O (configuration not stated)	178 to 179 °C
C[C@H](OC(c1ccccc1)(c1ccccc1)c1ccccc1)C(=O)O	100 to 106 °C
O=C(NS(=O)(=O)NC(=O)OCc1ccccc1)OCc1ccccc1	139 to 141 °C
CCOC(=O)C1(CC(N)=O)C(=O)N(Cc2ccc(Br)cc2F)C(=O)c2cccn21 (configuration not stated)	190 to 192 °C
CCc1cc(C(=O)OC)c(C2=NC(=O)C(C)(C(C)C)N2)nc1COC (configuration not stated)	87 to 90 °C
CCOCCCOc1ccc2c(c1)C(N(C)S(C)(=O)=O)CC(C)(C)O2 (configuration not stated)	61 to 63 °C

Structure (SMILES)	melting point
CCCCc1nc(Cl)c(/C=C(\Cc2ccccc2)C(=O)O)n1Cc1ccc(-c2c(O)c(=O)c2=O)cc1	155 to 160 °C
COC(=O)c1c(F)cc(OCCNC(=O)C2Cc3ccccc3N2S(=O)(=O)c2ccc(-c3ccc(F)cc3OC)cc2)cc1F (configuration not stated)	65 to 76 °C
O=C(O)c1ccc2cccnc2c1O	264 to 266 °C
O=C(Nc1ccccc1OCCCBr)c1cccc2[nH]ccc12	145 °C
BrCC=C(c1ccc(I)cc1)c1ccc(I)cc1	105 to 109 °C
O=C(O)c1ccc2c(ccn2Cc2cccc([N+](=O)[O-])c2)c1	251 to 254 °C
COc1cccc(-c2c(F)c(F)c(N)c(F)c2F)c1	94 to 96 °C
CCOP(=O)(OCC)Oc1cc(CC)ccc1C1CCN(CCCCNC(=O)c2ccc(NC(=O)c3ccc(Cl)cc3)cc2)CC1	158 to 160 °C
COc1ccc2c(c1)CC(Nc1ccc(O)cc1)C2 (configuration not stated)	144 to 146 °C
Cc1cc(C2=NOC(c3cc(Cl)cc(Cl)c3)(C(F)(F)F)C2)ccc1C(=O)Cl (configuration not stated)	140 to 143 °C
CCn1ncc2c3noc(-c4cccc(F)c4)c3cnc21	182 to 184 °C
O=C(OCCc1ccccc1)ON1C(=O)CCC1=O	69 to 72 °C
CCCCCc1ccc(-c2ccc(CCc3ccc(OCC)cc3)cc2)cc1	81 °C
Cc1ccc(-c2nc(C(F)(F)F)nn2-c2ccc(S(N)(=O)=O)cc2)cc1	245 to 247 °C
CCN(CC)CCNc1nc(N2CCCC2)nc2ccccc12	87 to 90 °C
O=S1(=O)NC=Nc2cc(C(F)(F)F)c(F)cc21	152 °C
Clc1cc(N2CCSCC2)nc(Cl)n1	118 to 122 °C
COc1cccc(-c2nc(N)ncc2-c2ccc(=O)n(C)n2)c1	195 °C
CC(Nc1nc2ccc(Cl)cc2cc1C(=O)O)C(=O)Nc1ccc2ccccc2c1 (configuration not stated)	230 to 243 °C
COCCCN1CCC(CNC(=O)c2cc(Cl)c(N)c(OC)c2OC)C(O)C1 (configuration not stated)	110 °C
Cn1c(CCCOc2ccc(CC3SC(=O)NC3=O)cc2)nc2cccnc21 (configuration not stated)	185 to 186 °C
O=c1cc(O)nc2sc(CCC3CCCCC3)nn12	215 to 219 °C
CCOC(=O)C1=Cc2cc(Cl)cc(CO)c2OC1C(F)(F)F (configuration not stated)	98 to 100 °C
N#CCCNC(=O)C1=CC(CF)(CF)Oc2ccc(C(F)(F)C(F)(F)C(F)(F)F)cc21	135 to 136 °C
O=C1NCN2c3ccc(Cl)cc3[C@H]3CCN4CCC[C@H]1[C@H]4[C@H]32 (racemic)	> 250 °C

Structure (SMILES)	melting point
COc1ccc(C2(c3ccc(OC)cc3)CCN(CC[C@H]3CN(C)[C@@H]4Cc5c[nH]c6cccc(c56)[C@@]4(OC)C3)CC2)cc1	129 to 136 °C
CC(=O)c1ccc(OCc2ccccc2)c(CS(C)(=O)=O)c1	94 to 97 °C
CCOC(=O)C1(C(=O)OCC)CCC2(CC1)NCCc1cc(OC)c(OC)cc12	103 to 104 °C
COC(=O)c1ccc2[nH]nnc2c1C(=O)OC	147 to 150 °C
Cn1nc(N=Cc2ccncc2)nc1NCCCOC1=CCC=C(CN2CCCC2)C1	166 to 167 °C
CN(CCc1ccccc1)c1ssc(=O)c1Cl	75 °C
Cc1nc(N2C[C@@H](C)N(Cc3ccc(F)cc3)C2=O)sc1C(=O)NCc1cccnc1	135 to 136 °C
CC(C)(C)c1cc(C(=O)c2cccnc2)cc(C(C)(C)C)c1O	144 °C
CNCC1Cc2cc(Cl)cc(-c3cccc(OC)c3OC)c2O1 (configuration not stated)	105 to 107 °C
NS(=O)(=O)OCC1COc2cc(Cl)c(Cl)cc2O1 (configuration not stated)	109 to 111 °C
OCc1nc2n(c1CO)-c1ccc(Cl)cc1C(c1ccccc1F)=NC2	222 °C
O=C(c1ccc(Cl)cc1)c1ccc2c(c1)C(c1cccc(Cl)c1)=NCc1nnnn1-2	220 °C
O=C(O)c1nn(-c2ccc(Cl)cc2)c2c1[C@H]1CC[C@@H]2C1	110 to 112 °C
Cc1ccc(S(=O)(=O)Nc2cc3c(c(C(=O)O)c2)NC(c2ccccc2)CC3)cc1 (configuration not stated)	219 to 220 °C
CC(C)(C)[Si](C)(C)Oc1ccc2c(c1)OC(O)c1c-2sc2cc(O[Si](C)(C)C(C)(C)C)ccc12 (configuration not stated)	162 to 164 °C
O=C(O)c1cn(C2CC2)c2cc(Cl)ncc2c1=O	226 to 227 °C
N#Cc1ccc(NC2=C(Cl)C(=O)c3ccccc3C2=O)cc1	188 to 189 °C
CC1(c2cccs2)Cc2cc(OCC(=O)O)c(Cl)c(Cl)c2C1=O (configuration not stated)	161 to 162 °C
CCOC(=O)c1cn[nH]c1C(=O)CC(C)C	105 to 107 °C
Oc1cccc2c1CC=CC2	70.5 to 72 °C
COC(=O)C1=C(C)NC2=C(C(=O)OC2)C1c1ccc2c(c1)OCO2 (configuration not stated)	226 to 228 °C
Cc1nc(-c2cc(C(C)(C)C)c(O)c(C(C)(C)C)c2)no1	126 to 127 °C
CC(=O)N1CC(CCN2CCC(c3ccccc3)CC2)c2cc3c(cc21)OCO3 (configuration not stated)	101 to 103 °C
CC(C)[C@H](S)C(=O)NC(C)(C)C(=O)N[C@@H](Cc1ccc(O)cc1)C(=O)O	180 to 181 °C
CCc1nc2c(C)cc(C)nc2n1Cc1ccc(C(=O)c2ccccc2)cc1	98 °C

Structure (SMILES)	melting point
N[C@@H](Cc1ccc(C(F)(F)F)cc1)[C@H](O)c1ccc(Cl)nc1 (racemic)	103 to 104 °C
CCCCCCCCCCCCS(=O)(=O)Nc1cc(NC(=O)c2ccc(F)c(F)c2)ccc1OC	132 °C
CC(C)(C)c1ccc(NC(=O)c2ccccc2SSc2ccccc2C(=O)Nc2ccc(C(C)(C)C)cc2)cc1	135 to 138 °C
CCN(CC)CC(O)c1c(OC)ccc2c(C)c(C)oc12 (configuration not stated)	55 °C
COc1ccc(CN2C(=O)C(O)(c3cc(CO)ccc3Cl)c3cc(Cl)ccc32)c(OC)c1 (configuration not stated)	107 °C
CCOC(=O)c1csc(N2CCOC2=O)n1	157 to 159 °C
O=C(Cn1c(-c2ccc(Br)cc2)nc2cccnc21)NCCN1CCCCC1	178 to 179 °C
CCNC(=O)c1ccc(N2CCN(Cc3cc4c(c(OC)c3)OC(C)C(=O)N4)CC2)c(Cl)c1 (configuration not stated)	119 to 121 °C
Clc1ncc(OCc2ccsc2)cn1	73 to 76 °C
O=P(O)(O)C(O)(CCc1ccc(Cl)cc1)P(=O)(O)O	201 °C
Cc1nc(-c2ccc(F)cc2)n(-c2ccc(S(N)(=O)=O)cn2)n1	221 to 222 °C
CC1=C(c2ccc(O)cc2)CCC(=O)N1	197 to 200 °C
O=S(=O)(c1ccccc1)n1c2ccc(Br)cc2c2cc(Cl)cnc21	242 °C
Cc1ccc(-n2c3ccccc3c3cc(C(C#N)=C(C#N)C#N)ccc32)cc1	233 to 234 °C
O=C(O)CCc1cccc2c1NC(=O)CC2	164 to 165 °C
O=C1NC(=O)c2cc(Nc3ccccc3I)c(Nc3ccccc3I)cc21	108 to 110 °C
O=C(O)c1ccc(-c2cc(=O)n(-c3ccccc3)s2)cc1	260 to 261 °C
O=C(C(=Cc1ccccc1)c1ccccc1)c1ccc(O)cc1	186 to 190 °C
OCC1=Cc2cccc(OCc3ccccc3)c2CC1	59 to 61 °C
COc1ccccc1-n1c(=O)[nH]c2c(C(N)=O)nc(-c3ccccc3C(F)(F)F)nc21	237 to 240 °C
COc1cc(Nc2c(C#N)cnc3cc(-c4cccc(CCN5CCOCC5)c4)c(OC)cc23)c(Cl)cc1Cl	193 to 195 °C
COc1cc2c(Nc3ccc(Sc4nccn4C)c(Cl)c3)c(C#N)cnc2cc1OCCN1CCC(N2CCCC2)CC1	127 to 130 °C

Reference: a melting point compilation (Tetko et al.; mined from patent text by program, amines drawn as free bases though some values may be those of a salt)
